This is an account of results in patent US20250051301A1, “MUTANT IDH1 AND IDH2 INHIBITOR AND APPLICATION THEREOF” (Betta Pharmaceuticals Co., Ltd, priority 2022, published 2025).

In series [1] the target is T1, IDH2^R140Q (Homo sapiens, UniProt P48735, R140Q).
T1 sequence (P48735 40-452 R140Q): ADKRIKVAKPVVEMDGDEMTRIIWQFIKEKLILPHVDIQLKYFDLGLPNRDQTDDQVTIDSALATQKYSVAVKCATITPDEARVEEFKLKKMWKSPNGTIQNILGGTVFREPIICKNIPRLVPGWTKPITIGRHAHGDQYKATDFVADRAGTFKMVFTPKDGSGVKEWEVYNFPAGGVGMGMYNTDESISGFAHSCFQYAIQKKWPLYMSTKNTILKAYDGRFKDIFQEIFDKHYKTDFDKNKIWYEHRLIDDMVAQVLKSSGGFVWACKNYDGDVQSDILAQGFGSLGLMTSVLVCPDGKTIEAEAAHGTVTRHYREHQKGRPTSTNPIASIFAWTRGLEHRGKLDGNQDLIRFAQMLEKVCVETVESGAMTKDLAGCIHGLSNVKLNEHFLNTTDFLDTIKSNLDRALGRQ
Description: Enzyme activity inhibition assay (fluorescence-based), IDH2 R140Q. In kind it is biochemical. Particulars: numeric values. Here is the method:
The inhibitory ability of the compounds on the enzyme activities of IDH1^R132H and IDH2^R140Qwas detected and expressed as the half inhibitory concentration (IC50) value. AG-881 was used as a positive control compound. In this experiment, compounds were screened on enzymes IDH1^R132H and IDH2^R140Q using a fluorescence-based method (initial concentration: 10000 nM, 3-fold dilution, 10 concentrations, and single-well detection). • (1) Preparation of 1×assay buffer. • (2) Preparation of compound concentration gradient: the compounds to be tested were assayed at an initial concentration of 10000 nM, with 3-fold dilution and 10 concentrations, and diluted into 200-fold the final concentration in 100% DMSO solution in a 384-well plate. • (3) 250 nL of DMSO and 250 nL of diluted compounds were transferred to a reaction plate with Echo 550. • (4) IDH2^R140Q enzyme detection: 25 μL of an IDH2^R140Q enzyme solution was added, and the mixture was incubated for 60 minutes; then 25 μL of a substrate solution was added, and the mixture was incubated for 150 minutes; then 25 μL of a detection buffer was added, and the mixture was shaken for 1 minute and incubated for 60 minutes; and finally, Synergy 2, Ex544/Em590 cutoff 590 was used for reading. • (5) IDH1^R132H enzyme detection: 40 μL of a mixture solution of an IDH1^R132H enzyme at the 1.25-fold final concentration and NADPH was added, and the mixture was incubated for 60 minutes; then 10 μL of a substrate solution at the 5-fold final concentration was added, and the mixture was incubated for 90 minutes; then 25 μL of a detection buffer at the 3-fold final concentration was added, and the mixture was shaken for 1 minute. and finally, Synergy 2, Ex544/Em590 cutoff 590 was used for reading. • (8) Inhibition rate calculation, formula: % Inhibition=(RFU_sample−RFU_min)/(RFU_max−RFU_min)*100%, wherein RFU-sample represents the fluorescence intensity of a sample; RFU-min represents the average value of negative control wells and represents the fluorescence intensity with an enzyme; and RFU-max represents the average value of positive control wells and represents the fluorescence intensity without an enzyme. The curve fitting was performed using Graphpad Prism software to obtain IC50 values, and the test results were as shown in table 2.

Series [2] is described as follows: Kinetic solubility experiment. Particulars: buffer, kinetic from dmso stock. Type of series: physicochemical. Here is the method: 1. Preparation of Solutions/Buffers at Different pH Values
• Solution A: 17.42 g of K2HPO4 was weighed and dissolved in 1 L of ultrapure water. • Solution B: 13.65 g of KH2PO4 was weighed and dissolved in 1 L of ultrapure water.
A certain mass of substance to be tested was accurately weighed and dissolved in a certain volume of DMSO to obtain a 20 mM or 10 mM stock solution.
An acetonitrile stopping solution containing 1 ng/mL of labetalol and glibenclamide was prepared.
3. Incubation System (n=3)
The above-mentioned solutions were placed in a 96-well plate, respectively and shaken in a thermostatic oscillator for 2 hours (37° C., 150 rpm).
4. Control solution: 200 μM control solution of the substance to be tested was prepared in methanol. 5. Sample treatment
At a predetermined time, the 96-well plate was placed in a centrifuge and centrifuged at 4100 rpm for 15 minutes. A certain volume of the supernatant and a certain volume of control solution were respectively taken into 19 times volume of water containing 70% acetonitrile that has been previously added. The mixture was uniformly mixed, diluted 20 times with an internal standard stop solution and shaken in a thermostatic oscillator at 700 rpm at room temperature for 5 min. Further dilution may be necessary depending on the sensitivity of the compound, and sample analysis was performed by LC-MS/MS.
The ratio of compound peak area to internal standard peak area was used for calculation. According to the concentration relationship between the compound in the buffer and the control solution, the calculated concentration was the kinetic solubility, and the calculation formula was as follows:
Solubility(μg/mL)=mass spectral peak area of the compound to be tested in buffers at different pHs×200μM×molecular weight of the compound to be tested(MW)/mass spectral peak area of the compound to be tested in methanol/1000;

Converted amounts (≈) assume the structure as drawn.

In general, IC50 refers to the concentration at which inhibition is half-maximal. The solubility is how much of the substance goes into solution per volume. Consider `C[C@@H](Nc1nc(N[C@H](C)C(F)(F)F)nc(-c2cc(F)c(N)c(Cl)n2)n1)C(F)(F)F` [Example 5, 6-(5-amino-6-chloro-4-fluoropyridin-2-yl)-N^2,N^4-bis((R)-1,1,1-trifluoropropyl-2-yl)-1,3,5-triazine-2,4-diamine], for which the IC50 in series [1] was found to be 190 nM. In addition, the solubility at 2 h in series [2] (aqueous buffer, pH = 3.0, 37° C.) is 0.0533 mg/mL (≈ 119 µM); in series [2] (aqueous buffer, pH = 5.0, 37° C.), 0.0595 mg/mL (≈ 133 µM); in series [2] (aqueous buffer, pH = 7.4, 37° C.) it was 0.0481 mg/mL (≈ 107 µM); in series [2] (simulated gastric fluid, pH = 1.0, 37° C.), 0.0866 mg/mL (≈ 193 µM).
